From PubChem BioAssay (NCI)
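48-hour exposure; five concentrations; linearly interpolated endpoints. The concentration for 50% growth inhibition is given as GI50. TGI: total growth inhibition.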

Tests used:
Test in all cases: growth of human tumour cells (NCI), 48 h
[1] = system: RXF 393 renal
[2] = system: HOP-92 NSCLC
[3] = system: SF-295 CNS
[4] = system: HL-60(TB) leukemia
[5] = system: UACC-257 melanoma
[6] = system: RPMI-8226 leukemia
[7] = system: SK-OV-3 ovarian
[8] = system: UO-31 renal
[9] = system: OVCAR-4 ovarian
[10] = system: CAKI-1 renal
[11] = system: SNB-75 CNS
[12] = system: OVCAR-5 ovarian
[13] = system: KM12 colon
[14] = system: HCT-116 colon
[15] = system: MALME-3M melanoma
[16] = system: T-47D breast
[17] = system: SW-620 colon
[18] = system: K-562 leukemia
[19] = system: NCI-H226 lung
[20] = system: HCT-15 colon
[21] = system: MCF7 breast
[22] = system: SK-MEL-28 melanoma
[23] = system: SNB-19 CNS
[24] = system: COLO 205 colon
[25] = system: MDA-MB-231 breast
[26] = system: OVCAR-3 ovarian
[27] = system: NCI-H522 lung
[28] = system: SF-539 CNS
[29] = system: 786-0 renal
[30] = system: MDA-MB-435
[31] = system: HS 578T breast
[32] = system: NCI/ADR-RES ovarian
[33] = system: MDA-MB-468 breast
[34] = system: EKVX NSCLC
[35] = system: SN12C renal
[36] = system: SK-MEL-5 melanoma
[37] = system: SR leukemia
[38] = system: NCI-H460 lung
[39] = system: A498 renal
[40] = system: UACC-62 melanoma
[41] = system: ACHN renal
[42] = system: OVCAR-8 ovarian
[43] = system: HCC-2998 colon
[44] = system: LOX IMVI melanoma
[45] = system: BT-549 breast
[46] = system: SK-MEL-2 melanoma
[47] = system: NCI-H23 lung
[48] = system: DU-145 prostate
[49] = system: U251 CNS
[50] = system: HOP-62 NSCLC
[51] = system: HT29 colon
[52] = system: PC-3 prostate
[53] = system: M14 melanoma
[54] = system: A549 NSCLC
[55] = system: MOLT-4 leukemia
[56] = system: CCRF-CEM leukemia
[57] = system: SF-268 CNS
[58] = system: IGROV1 ovarian
[59] = system: TK-10 renal

## Cc1ccc2c(c1)/C(=C/C(=O)c1cc3ccccc3oc1=O)C(=O)N2
[1]
  GI50: 15.8 µM
  TGI: 29.3 µM
[2]
  GI50: 14.5 µM
  TGI: 28.4 µM
[3]
  GI50: > 100 µM
  TGI: > 100 µM
[4]
  GI50: 4.32 µM
  TGI: 23.1 µM
[5]
  GI50: 15.7 µM
  TGI: 29.6 µM
[6]
  GI50: 22.1 µM
  TGI: 63.9 µM
[7]
  GI50: > 100 µM
  TGI: > 100 µM
[8]
  GI50: 11.3 µM
  TGI: 23.4 µM
[9]
  GI50: 17.4 µM
  TGI: 33.3 µM
[10]
  GI50: 12.2 µM
  TGI: 25.3 µM
[11]
  GI50: 82.1 µM
  TGI: > 100 µM
[12]
  GI50: 16.7 µM
  TGI: 30.3 µM
[13]
  GI50: > 100 µM
  TGI: > 100 µM
[14]
  GI50: 4.45 µM
  TGI: 16.8 µM
[15]
  GI50: 10.6 µM
  TGI: 22.5 µM
[16]
  GI50: 13 µM
  TGI: 34.5 µM
[17]
  GI50: 14.7 µM
  TGI: 30.4 µM
[18]
  GI50: 3.91 µM
  TGI: 48.7 µM
[19]
  GI50: 18.6 µM
  TGI: 46.8 µM
[20]
  GI50: 16.7 µM
  TGI: 32.8 µM
[21]
  GI50: 16.4 µM
  TGI: 34 µM
[22]
  GI50: 17 µM
  TGI: 30.6 µM
[23]
  GI50: > 100 µM
  TGI: > 100 µM
[24]
  GI50: 17.2 µM
  TGI: 32.4 µM
[25]
  GI50: 15 µM
  TGI: 28.2 µM
[26]
  GI50: 14.1 µM
  TGI: 27.3 µM
[27]
  GI50: 3.26 µM
  TGI: 11.5 µM
[28]
  GI50: 16.2 µM
  TGI: 29.7 µM
[29]
  GI50: 18.5 µM
  TGI: 32.4 µM
[30]
  GI50: 17.6 µM
  TGI: 33 µM
[31]
  GI50: 19.4 µM
  TGI: 84.6 µM
[32]
  GI50: 17.3 µM
  TGI: 34.4 µM
[33]
  GI50: 10.5 µM
  TGI: 23.9 µM
[34]
  GI50: 16.2 µM
  TGI: 29.9 µM
[35]
  GI50: 16.9 µM
  TGI: 31.9 µM
[36]
  GI50: 24.9 µM
  TGI: 80.2 µM
[37]
  GI50: 7.24 µM
  TGI: 74.7 µM
[38]
  GI50: > 100 µM
  TGI: > 100 µM
[39]
  GI50: > 100 µM
  TGI: > 100 µM
[40]
  GI50: 15.5 µM
  TGI: 33 µM
[41]
  GI50: 9.6 µM
  TGI: 21.3 µM
[42]
  GI50: 17.9 µM
  TGI: 34 µM
[43]
  GI50: 17.7 µM
  TGI: 32.8 µM
[44]
  GI50: 14.7 µM
  TGI: 27.9 µM
[45]
  GI50: 17.6 µM
  TGI: 33.7 µM
[46]
  GI50: 21.1 µM
  TGI: 54.7 µM
[47]
  GI50: 16.4 µM
  TGI: 32.8 µM
[48]
  GI50: 17.9 µM
  TGI: 32.4 µM
[49]
  GI50: 29.2 µM
  TGI: > 100 µM
[50]
  GI50: > 100 µM
  TGI: > 100 µM
[51]
  GI50: 20.6 µM
  TGI: 40.5 µM
[52]
  GI50: 16.1 µM
  TGI: 36 µM
[53]
  GI50: 15.9 µM
  TGI: 29.8 µM
[54]
  GI50: 34.5 µM
  TGI: > 100 µM
[55]
  GI50: 8.56 µM
  TGI: 43.2 µM
[56]
  GI50: 6.91 µM
  TGI: 56.5 µM
[57]
  GI50: 68.3 µM
  TGI: > 100 µM
[58]
  GI50: 16.2 µM
  TGI: 29.9 µM
[59]
  GI50: 20 µM
  TGI: 34.7 µM

## COc1c2c(cc3c1C(CCc1ccccc1)N(C)CC3)OCO2 (stereo unspecified)
[1]
  GI50: 11.8 µM
  TGI: 55 µM
[2]
  GI50: 5.53 µM
  TGI: 56.1 µM
[3]
  GI50: 4.34 µM
  TGI: 28.9 µM
[4]
  GI50: 4.8 µM
  TGI: 26.4 µM
[5]
  GI50: 29.3 µM
  TGI: > 100 µM
[6]
  GI50: 6.07 µM
  TGI: 38.2 µM
[7]
  GI50: 27.4 µM
  TGI: > 100 µM
[8]
  GI50: 8.35 µM
  TGI: > 100 µM
[9]
  GI50: 26.4 µM
  TGI: > 100 µM
[10]
  GI50: 10.5 µM
  TGI: > 100 µM
[11]
  GI50: 11.6 µM
  TGI: 54 µM
[12]
  GI50: 9.57 µM
  TGI: > 100 µM
[13]
  GI50: 21.4 µM
  TGI: 70 µM
[14]
  GI50: 4.32 µM
  TGI: > 100 µM
[15]
  GI50: 13 µM
  TGI: 27.3 µM
[16]
  GI50: 11.3 µM
  TGI: 49.2 µM
[17]
  GI50: 10.3 µM
  TGI: 59.6 µM
[18]
  GI50: 17.8 µM
  TGI: > 100 µM
[19]
  GI50: 13.8 µM
  TGI: > 100 µM
[20]
  GI50: 22.5 µM
  TGI: > 100 µM
[21]
  GI50: 14.6 µM
  TGI: 43.1 µM
[22]
  GI50: 15.8 µM
  TGI: 59.3 µM
[23]
  GI50: 21.7 µM
  TGI: > 100 µM
[24]
  GI50: 10.4 µM
  TGI: 36.5 µM
[25]
  GI50: 10 µM
  TGI: 40.7 µM
[26]
  GI50: 13.8 µM
  TGI: 77.3 µM
[27]
  GI50: 18.4 µM
  TGI: 65.4 µM
[28]
  GI50: 10.7 µM
  TGI: 35.5 µM
[29]
  GI50: 18.7 µM
  TGI: > 100 µM
[30]
  GI50: 6.25 µM
  TGI: 36.5 µM
[31]
  GI50: 14.2 µM
  TGI: 67 µM
[32]
  GI50: 15.6 µM
  TGI: 81.1 µM
[33]
  GI50: 11.7 µM
  TGI: 27.4 µM
[34]
  GI50: 30.5 µM
  TGI: > 100 µM
[35]
  GI50: 10.2 µM
  TGI: > 100 µM
[36]
  GI50: 13.8 µM
  TGI: 26.8 µM
[37]
  GI50: 10.6 µM
  TGI: 53.3 µM
[38]
  GI50: 7.61 µM
  TGI: 54.3 µM
[39]
  GI50: 12.1 µM
  TGI: 48.3 µM
[40]
  GI50: 12 µM
  TGI: 43.9 µM
[41]
  GI50: 13.5 µM
  TGI: > 100 µM
[42]
  GI50: 31.3 µM
  TGI: > 100 µM
[43]
  GI50: 18.1 µM
  TGI: 61.1 µM
[44]
  GI50: 5.31 µM
  TGI: 19.4 µM
[45]
  GI50: 14.3 µM
  TGI: 35.5 µM
[46]
  GI50: 24.6 µM
  TGI: 98.3 µM
[47]
  GI50: 16.2 µM
  TGI: > 100 µM
[48]
  GI50: 36 µM
  TGI: > 100 µM
[49]
  GI50: 24.5 µM
  TGI: > 100 µM
[50]
  GI50: 8.32 µM
  TGI: > 100 µM
[51]
  GI50: 5.9 µM
  TGI: 65.3 µM
[52]
  GI50: 11.3 µM
  TGI: > 100 µM
[53]
  GI50: 7.57 µM
  TGI: 36.5 µM
[54]
  GI50: 31.5 µM
  TGI: > 100 µM
[55]
  GI50: 15.8 µM
  TGI: 65.1 µM
[56]
  GI50: 19.2 µM
  TGI: > 100 µM
[57]
  GI50: 17.3 µM
  TGI: > 100 µM
[58]
  GI50: 10 µM
  TGI: 62.6 µM
[59]
  GI50: 47.2 µM
  TGI: > 100 µM
